We go through three compounds from ChEMBL document CHEMBL6177971, “Iterative Optimization Yields Stapled Peptides with Superior Pharmacokinetics and Potency for Renal Fibrosis Treatment” (J Med Chem, 2025).

Data set [1] concerns HK-2. The data set can be described thus: Inhibition of TGF-beta1-induced EMT in human HK-2 cells assessed as decrease in alpha-SMA level at 10 uM incubated for 24 hrs by Western blot analysis. It is filed as functional, cell-based. In general terms: In western blotting, separated proteins are transferred to a membrane and probed.
For data set [2], the system named is HK-2. The data set can be described thus: Inhibition of TGF-beta1-induced EMT in human HK-2 cells assessed as decrease in collagen I level at 10 uM incubated for 24 hrs by Western blot analysis. It is filed as functional, cell-based.
For data set [3], the system named is Mus musculus. The data set is described as follows: Anti-fibrotic activity in male C57BL/6J mouse model of unilateral ureteral obstruction assessed as increase in E-cadherin level administered intraperitoneally every day for 7 days by Western blot analysis. It is filed as functional, organism-based. Conditions: route ip, time 7.0 day.
Data set [4] in a line: Toxicity in male C57BL/6J mouse model of unilateral ureteral obstruction assessed as change in animal appearance administered intraperitoneally every day for 7 days. Conditions: in vivo, ip, 168 h, time 7 day.
The test system of data set [5] is Mus musculus. The data set can be described thus: Anti-fibrotic activity in male C57BL/6J mouse model of unilateral ureteral obstruction assessed as decrease in alpha-SMA level administered intraperitoneally every day for 7 days by Western blot analysis. It is filed as functional, organism-based. Conditions: route ip, time 7.0 day.
Data set [6] can be described thus: Half life of compound. It is filed as physicochemical.
Data set [7] concerns Mus musculus. The data set is described as follows: Anti-fibrotic activity in male C57BL/6J mouse model of unilateral ureteral obstruction assessed as decrease in vimentin level administered intraperitoneally every day for 7 days by Western blot analysis. It is filed as functional, organism-based. Conditions: route ip, time 7.0 day.
A short description of data set [8]: Toxicity in male C57BL/6J mouse model of unilateral ureteral obstruction assessed as change in animal behaviour administered intraperitoneally every day for 7 days. Conditions: in vivo, ip, 168 h, time 7 day.
Data set [9] concerns HK-2. The data set can be described thus: Inhibition of TGF-beta1-induced EMT in human HK-2 cells assessed as decrease in fibronectin level at 10 uM incubated for 24 hrs by Western blot analysis. It is filed as functional, cell-based.
The nature of data set [10]: Toxicity in male C57BL/6J mouse model of unilateral ureteral obstruction assessed as change in animal body weight administered intraperitoneally every day for 7 days. Conditions: in vivo, ip, 168 h, time 7 day.
Data set [11] can be described thus: Retention time of compound. It is filed as physicochemical.
Data set [12] in a line: Half life in C57BL/6J mouse at 2.5 mg/kg, iv measured for 3 to 60 mins by HPLC/MS analysis. Conditions: in vivo, time 3-60 min. It is filed as ADME, organism-based.
The test system of data set [13] is Mus musculus. The data set can be described thus: Anti-fibrotic activity in male C57BL/6J mouse model of unilateral ureteral obstruction assessed as decrease in fibronectin level administered intraperitoneally every day for 7 days by Western blot analysis. Conditions: route ip, time 7.0 day. It is filed as functional, organism-based.
For data set [14], the system named is Mus musculus. The data set can be described thus: Anti-fibrotic activity in C57BL/6J mouse model of unilateral ureteral obstruction assessed as decrease in renal fibrosis at 20 mg/kg, ip administered every day for 7 days by H and E staining based analysis. It is filed as functional, organism-based. Conditions: time 7.0 day.
The subject of data set [15] is Mus musculus. The data set can be described thus: Anti-fibrotic activity in C57BL/6J mouse model of unilateral ureteral obstruction assessed as decrease in renal inflammation at 20 mg/kg, ip administered every day for 7 days by H and E staining based analysis. It is filed as functional, organism-based. Conditions: time 7.0 day.

Activity calls are given as the source filed them. *1 amine or outer side, *2 acyl side, *3 side chain or, on linkers, in order; H or OH if unused. Where a SMILES comes first, the peptide text is derived from it. [ ]: non-standard residue; d: D form. X1 = CCCCC[C@](C)(N[*:1])C(=O)[*:2]; S5 = C=CCCC[C@](C)(N)C(=O)O

As for `C=CCCC[C@](C)(NC(=O)[C@H](Cc1c[nH]cn1)NC(=O)[C@@H](N)CC(=O)O)C(=O)N[C@@H](CC(N)=O)C(=O)N1CCC[C@H]1C(=O)N[C@@H](CCC(N)=O)C(=O)N[C@H](C(=O)N[C@@H](CCCNC(=N)N)C(N)=O)[C@@H](C)CC` (H-DH[S5]NPQIR-NH2), the inhibition entry with HK-2 [1], in the data set on HK-2 [2] and in the data set on HK-2 [9] was “Active” in each case. Further, the result in the data set with Mus musculus [3], in the data set on Mus musculus [5], with Mus musculus [7] and in the data set on Mus musculus [13] was Active. Moreover, the Activity entry in data set [4], in [8] and in [10] was “Non-toxic” throughout. Also, the half-life in data set [6] is 98.4 min; in [12], 11.4 min. Further, the Retention_time in [11] is on record as 9.036 min.
Take `CCCCC[C@](C)(NC(=O)[C@H](Cc1c[nH]cn1)NC(=O)[C@@H](N)CC(=O)O)C(=O)N[C@@H](CC(N)=O)C(=O)N1CCC[C@H]1C(=O)N[C@@H](CCC(N)=O)C(=O)N[C@H](C(=O)N[C@@H](CCCNC(=N)N)C(N)=O)[C@@H](C)CC` (H-DH[X1]NPQIR-NH2): the inhibition entry in the data set on HK-2 [1], in the data set on HK-2 [2] and in the data set with HK-2 [9] was “Active” throughout. Moreover, the result in the data set on Mus musculus [3], with Mus musculus [5], in the data set on Mus musculus [7] and in the data set with Mus musculus [13] was Active. Further, the Activity result in [4], in [8] and in [10] was “Non-toxic” in each case. Also, the Retention_time in data set [11] is given as 10.009 min.
Take `C[C@H](CS)C(=O)N1CCC[C@H]1C(=O)O`: the result with Mus musculus [14] and with Mus musculus [15] was Active.

One may read the half-life as the time needed for the level to fall by half in the phase considered. The low end stands for rapid decline, the high end for slow decline.
